The structures appear in SMILES notation.

The test deals with Transient receptor potential cation channel subfamily A member 1 (Homo sapiens, UniProt O75762). Briefly: FLIPR Assay of Inhibitory Activity on Human TRPA1. As to the method: Table 3.1: The cell analysis plate was placed in an FLIPR instrument ([…]), and the compound in the compound plate was added to the corresponding hole on the cell analysis plate (First addition) via an automatic program, and the calcium ion fluorescence signal was recorded to determine whether the compound had agonistic activity. After 10 minutes, CaCl2 (Second addition) was added a final concentration of 3 mM to each well to stimulate intracellular calcium flux signals. Ca++-dependent fluorescence signal was monitored continuously at 538 nm wavelength to analyze the inhibitory activity of the compounds.
Chain of Transient receptor potential cation channel subfamily A member 1 (O75762 whole entry): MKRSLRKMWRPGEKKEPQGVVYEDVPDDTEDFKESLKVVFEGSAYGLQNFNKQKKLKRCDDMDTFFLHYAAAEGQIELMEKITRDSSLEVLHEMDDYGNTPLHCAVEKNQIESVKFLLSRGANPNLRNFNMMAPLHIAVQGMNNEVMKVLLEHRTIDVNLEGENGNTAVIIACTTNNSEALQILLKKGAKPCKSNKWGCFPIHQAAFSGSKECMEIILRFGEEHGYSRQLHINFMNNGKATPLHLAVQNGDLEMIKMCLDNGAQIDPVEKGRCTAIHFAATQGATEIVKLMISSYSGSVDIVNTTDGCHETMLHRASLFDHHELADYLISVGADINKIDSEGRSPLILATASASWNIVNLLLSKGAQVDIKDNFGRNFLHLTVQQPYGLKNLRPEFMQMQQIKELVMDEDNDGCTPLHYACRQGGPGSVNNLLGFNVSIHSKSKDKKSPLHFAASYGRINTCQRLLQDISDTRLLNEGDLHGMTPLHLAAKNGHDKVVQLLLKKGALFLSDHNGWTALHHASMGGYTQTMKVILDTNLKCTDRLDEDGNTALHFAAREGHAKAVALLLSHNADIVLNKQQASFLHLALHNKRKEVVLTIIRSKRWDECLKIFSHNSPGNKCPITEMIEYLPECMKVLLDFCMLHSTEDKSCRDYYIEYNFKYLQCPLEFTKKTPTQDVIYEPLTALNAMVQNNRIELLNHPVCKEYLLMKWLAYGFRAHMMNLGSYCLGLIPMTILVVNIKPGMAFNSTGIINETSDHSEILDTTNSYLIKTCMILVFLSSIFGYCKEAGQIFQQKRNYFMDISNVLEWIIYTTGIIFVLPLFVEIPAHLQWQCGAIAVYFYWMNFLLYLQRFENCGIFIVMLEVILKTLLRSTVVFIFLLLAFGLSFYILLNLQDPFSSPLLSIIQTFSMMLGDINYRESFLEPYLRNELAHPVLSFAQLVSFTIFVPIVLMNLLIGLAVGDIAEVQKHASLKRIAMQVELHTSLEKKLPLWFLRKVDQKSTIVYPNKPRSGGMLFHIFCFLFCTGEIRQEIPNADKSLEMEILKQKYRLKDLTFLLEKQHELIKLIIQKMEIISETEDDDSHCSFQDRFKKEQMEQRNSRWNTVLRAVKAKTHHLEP

Compound `O=C(N1CCN(c2cccc(C(F)(F)F)n2)CC1)C1(Nc2ccc(Cl)cc2)CCCC1` [US12391660, Compound 20] returned a half-inhibitory concentration (IC50) of 56 nM. Compound `O=C(N1CCN(c2ccc(C(F)(F)F)nn2)CC1)C1(Nc2ccc([N+](=O)[O-])cc2)CCCC1` [US12391660, Compound 21] came in with an IC50 of 875 nM.

`CN(c1ccc(C#N)cc1)C1(C(=O)N2CCC(C(C)(C)C)CC2)CCCC1` [US12391660, Compound 44] registered an IC50 of 280 nM. The figure for `Cn1cc(OC2(C(=O)N3CCN(c4ccc(C(F)(F)F)cn4)CC3)CCCC2)nc1C#N` [US12391660, Compound 61] is 2870 nM.

Usually IC50 stands for the concentration at which inhibition is half-maximal. A low value points to inhibition by little substance.
